Several values for one entry are separate records, joined by “and”; a condition that tells them apart may be missing. Equal values may be shown once.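 How tested: cells in 96-well plates exposed to compound for 48 hours at five concentrations. GI50 marks 50% less growth. TGI is the concentration that stops growth completely.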
Tests used:
Assay in all cases: NCI anticancer screen, dose series, 48 h
HCC-2998 colon = system: HCC-2998 colon
SK-MEL-5 melanoma = system: SK-MEL-5 melanoma
HOP-62 NSCLC = system: HOP-62 NSCLC
HCT-15 colon = system: HCT-15 colon
NCI-H522 lung = system: NCI-H522 lung
UO-31 renal = system: UO-31 renal
NCI-H23 lung = system: NCI-H23 lung
OVCAR-3 ovarian = system: OVCAR-3 ovarian
BT-549 breast = system: BT-549 breast
DU-145 prostate = system: DU-145 prostate

Row | SMILES | TGI (HCC-2998 colon) [µM] | TGI (SK-MEL-5 melanoma) [µM] | TGI (HOP-62 NSCLC) [µM] | TGI (HCT-15 colon) [µM] | TGI (NCI-H522 lung) [µM] | TGI (UO-31 renal) [µM] | TGI (NCI-H23 lung) [µM] | TGI (OVCAR-3 ovarian) [µM] | GI50 (HCC-2998 colon) [µM] | GI50 (OVCAR-3 ovarian) [µM] | GI50 (SK-MEL-5 melanoma) [nM] | GI50 (HOP-62 NSCLC) [nM] | GI50 (HCT-15 colon) [µM] | GI50 (NCI-H522 lung) [µM] | GI50 (UO-31 renal) | GI50 (NCI-H23 lung) [µM] | TGI (BT-549 breast) [µM] | TGI (DU-145 prostate) [µM] | GI50 (BT-549 breast) | GI50 (DU-145 prostate) [nM]
1 | CC(=O)O[C@@H]1CC(C)C2CC2C2=C(C(O)OC2O)[C@@H]1C(C)CCC=C(C)C (some centres not stated) | 40.5 | 60.6 | 56 | 49.5 | 31.5 | 47.6 | 55.4 | – | – | – | – | – | – | – | – | – | – | – | – | –
2 | O=Cc1[nH]c2ccccc2c1Br | > 100 | 31.1 | 40.6 | – | > 100 | 97 | 87.8 | 56.5 | – | – | – | – | – | – | – | – | – | – | – | –
3 | Cc1cc2c(c(C#N)c1C)NC(=O)C(CC(=O)O)C2=O (configuration not stated) | > 100 | > 100 | > 100 | > 100 | – | > 100 | > 100 | > 100 | – | – | – | – | – | – | – | – | – | – | – | –
4 | CCCCC(=O)[O-].N.N.N.N.N.[Co+3].[O-][Cl+3]([O-])([O-])[O-] | > 100 | > 100 | > 100 | > 100 | > 100 | > 100 | > 100 | > 100 | > 100 | > 100 | > 100000 | > 100000 | > 100 | > 100 | > 100 µM | > 100 | – | – | – | –
5 | Cc1ccc2c(=O)[nH]sc2c1 | 36.9 | 25.6 | 36.7 | 39.4 | 8.26 | – | 42.4 | 43.5 | – | – | – | – | – | – | – | – | 30 | > 100 | – | –
6 | Cc1ccc(C2=Nc3ccccc3NC(=O)C2)cc1 | > 100 | > 100 | > 100 | > 100 | > 100 | > 100 | > 100 | > 100 | – | – | – | – | – | – | – | – | – | – | – | –
7 | O=C(Nc1ccc(Nc2ccncc2)cc1)c1ccc(Nc2ccnc3ccc([N+](=O)[O-])cc23)cc1 | > 100 | > 100 | > 100 | > 100 | > 100 | – | > 100 | > 100 | > 100 | 6.35 | 71400 | > 100000 | > 100 | > 100 | – | > 100 | > 100 | > 100 | > 100 µM | > 100000
8 | COc1ccc(C=NC23CC4CC(CC(C4)C2)C3)cc1 | > 100 | > 100 | > 100 | > 100 | > 100 | > 100 | > 100 | > 100 | – | – | – | – | – | – | – | – | – | – | – | –
9 | COc1ccc2nc(NC(=O)C(=O)CC(=O)c3ccc(Cl)cc3)sc2c1 | > 100 | > 100 | > 100 | > 100 | > 100 | > 100 | > 100 | > 100 | – | – | – | – | – | – | – | – | – | – | – | –
10 | C=CCN=C1N=C(CC(=O)OCC)CS1 | > 100 | > 100 | > 100 | > 100 | > 100 | > 100 | > 100 | > 100 | – | – | – | – | – | – | – | – | – | – | – | –
11 | CC(=S)NNC(=O)c1ccncc1 | > 100 | > 100 | > 100 | > 100 | > 100 | > 100 | > 100 | > 100 | – | – | – | – | – | – | – | – | – | – | – | –
12 | CN(C)CCCn1c2c3ccccc3ccc2c2oc(=O)c3ccccc3c21 | 2.46 | 23.6 | 15.4 | 4.34 | 10.6 | 15.1 | 13.1 | 9.22 | – | – | – | – | – | – | – | – | > 57.8 | – | – | –
13 | O=C(O)c1ccc([N+](=O)[O-])c2c(=O)c3ccccc3[nH]c12 | > 100 | > 100 | > 100 | > 100 | > 100 | > 100 | – | – | – | – | – | – | – | – | – | – | – | – | – | –
14 | CC(C)(C)C(=O)C(c1ccc(-c2cscn2)cc1)c1ccc(-c2cscn2)cc1 | > 100 | > 100 | 40.6 | > 100 | > 100 | > 81.9 | > 100 | > 84.7 | – | – | – | – | – | – | – | – | – | – | – | –
15 | CCOC(=O)C(Cc1c[nH]c2cc([N+](=O)[O-])ccc12)(NC(C)=O)C(=O)OCC | > 1000 | – | 461 | > 1000 | > 1000 | > 1000 | > 1000 | > 1000 | > 1000 | > 1000 | – | 161000 | > 1000 | – | 43.4 µM and 188 µM | 138 | > 682 | > 1000 | 64.9 µM and 75 µM | > 542000
16 | Cl.Fc1c[c-]c(-c2ccccn2)c(F)c1.[Pt].c1ccc([PH+](CC[PH+](c2ccccc2)c2ccccc2)c2ccccc2)cc1 | – | 0.261 | 0.688 | – | – | 0.93 | – | 0.414 | – | 0.0827 | 130 | 186 | – | – | 0.254 µM | – | 0.978 | 1.2 | 0.0867 µM | 65.6
17 | CNS(=O)(=O)NN(C)S(=O)(=O)c1ccc(Br)cc1 | > 100 | > 100 | > 100 | > 100 | > 100 | > 100 | > 100 | > 100 | – | – | – | – | – | – | – | – | – | – | – | –
18 | CCc1nc2ccc(Cc3ccc(C(=O)NO)cc3)cc2c(=O)n1CCc1ccccc1 | 3.1 | 2.1 | 2.86 | 3.07 | 1.68 | – | 3.89 | 3.85 | 1.44 | 1.15 | 822 | 1320 | 0.528 | 0.302 | – | 1.11 | 4.79 | 7.81 | 1.73 µM | 1090
19 | Cc1cc(N/N=C/c2nc(-c3ccccc3)oc2C)c2cc(Cl)ccc2n1 | 3.23 | 3.2 | 3.66 | 3.37 | – | 3.07 | 3.61 | 3.57 | 1.73 | 1.94 | 1760 | 1850 | 1.68 | – | 1.61 µM | 1.7 | 29.3 | 4.49 | 14.9 µM | 2150
20 | COc1ccc(/C=C2\CNC/C(=C\c3ccc(OC)cc3)C2=O)cc1 | > 100 | > 100 | > 100 | > 100 | – | > 100 | 60.1 | > 100 | – | – | – | – | – | – | – | – | – | – | – | –

Reference: PubChem BioAssay (NCI)
